Activity calls are given as the source filed them. No cut-off for these calls is given here.
Columns and labels:
[1] = Drug uptake in C57BL/6J mouse kidney assessed as increase in fluorescence intensity at 100 umol/kg, iv measured after 10 mins by Ex vivo fluorescent imaging analysis; assay type: ADME, organism-based; conditions: dose 100 µmol/kg
[2] = Drug uptake in C57BL/6J mouse brain assessed as increase in fluorescence intensity at 100 umol/kg, iv measured after 10 mins by Ex vivo fluorescent imaging analysis; assay type: ADME, organism-based; conditions: dose 100 µmol/kg
[3] = Drug uptake in C57BL/6J mouse liver assessed as increase in fluorescence intensity at 100 umol/kg, iv measured after 10 mins by Ex vivo fluorescent imaging analysis; assay type: ADME, organism-based; conditions: dose 100 µmol/kg
Mus musculus [4] = assay: Protection against cerebral infarction in C57BL/6JNifdc mouse tMCAO model assessed as decrease in infarction area in brain at 100 umol/kg, iv measured after 24 hrs by TTC staining based analysis; assay type: functional, organism-based; conditions: dose 100.0 µmol/kg
Mus musculus [5] = assay: Anticoagulant activity in C57BL/6J mouse assessed as tail bleeding time at 40 mg/kg, ip and measured for 40 mins; assay type: functional
Liver carboxylesterase [6] = target: T1, Liver carboxylesterase (Sus scrofa, UniProt Q29550); assay: Prodrug release assessed as pig liver esterase-mediated H2S and fluorescent coumarin release by measuring half life of drug at 500 uM by HPLC analysis; assay type: ADME
T1 sequence (Q29550 whole entry): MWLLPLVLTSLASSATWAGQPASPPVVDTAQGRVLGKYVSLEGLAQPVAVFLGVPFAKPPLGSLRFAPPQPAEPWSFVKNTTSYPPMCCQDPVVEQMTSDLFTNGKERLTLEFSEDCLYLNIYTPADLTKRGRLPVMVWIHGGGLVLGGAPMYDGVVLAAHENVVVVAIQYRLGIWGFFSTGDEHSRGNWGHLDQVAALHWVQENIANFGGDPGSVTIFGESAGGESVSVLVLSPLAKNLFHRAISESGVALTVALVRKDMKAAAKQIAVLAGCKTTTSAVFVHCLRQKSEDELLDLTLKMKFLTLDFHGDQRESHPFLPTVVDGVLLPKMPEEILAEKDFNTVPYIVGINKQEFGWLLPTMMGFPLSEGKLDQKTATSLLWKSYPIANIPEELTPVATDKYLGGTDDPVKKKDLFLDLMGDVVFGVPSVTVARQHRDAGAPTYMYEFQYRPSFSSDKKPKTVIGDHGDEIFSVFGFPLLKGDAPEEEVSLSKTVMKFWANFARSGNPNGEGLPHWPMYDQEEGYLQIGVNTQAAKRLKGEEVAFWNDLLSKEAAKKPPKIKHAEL

[7] = Prodrug release in Sprague-Dawley rat plasma assessed as fluorescence intensity at 500 uM by fluorescence based analysis; assay type: ADME, cell-free
[8] = Prodrug release in Sprague-Dawley rat plasma assessed as increase in fluorescence intensity by measuring half life at 500 uM by fluorescence based analysis; assay type: ADME, cell-free
Liver carboxylesterase [9] = target: T1, Liver carboxylesterase; assay: Prodrug release assessed as pig liver esterase-mediated H2S and fluorescent coumarin release by measuring half life of drug at 500 uM by fluorescence based analysis; assay type: ADME
Liver carboxylesterase [10] = target: T1, Liver carboxylesterase; assay: Prodrug release assessed as pig liver esterase-mediated H2S and fluorescent coumarin release at 500 uM incubated for 24 hrs in presence of esterase inhibitor by HPLC analysis; assay type: ADME; conditions: isolated protein
Liver carboxylesterase [11] = target: T1, Liver carboxylesterase; assay: Prodrug release assessed as pig liver esterase-mediated H2S and coumarin release by measuring H2S concentration at 500 uM measured after 12 hrs by methylene blue method; assay type: ADME; conditions: isolated protein
[12] = Prodrug release in Sprague-Dawley rat plasma assessed as fluorescence intensity at 500 uM measured after 24 hrs in presence of esterase inhibitor by fluorescence based analysis; assay type: ADME, cell-free
[13] = Prodrug release in C57BL/6J mouse kidney assessed as H2S generation by measuring increase in fluorescence intensity at 100 umol/kg, iv measured after 6 hrs by Ex vivo fluorescent imaging analysis; assay type: ADME, organism-based; conditions: dose 100 µmol/kg
[14] = Prodrug release in C57BL/6J mouse brain assessed as H2S generation by measuring increase in fluorescence intensity at 100 umol/kg, iv measured after 6 hrs by Ex vivo fluorescent imaging analysis; assay type: ADME, organism-based; conditions: dose 100 µmol/kg
[15] = Prodrug release in C57BL/6J mouse liver assessed as H2S generation by measuring increase in fluorescence intensity at 100 umol/kg, iv measured after 6 hrs by Ex vivo fluorescent imaging analysis; assay type: ADME, organism-based; conditions: dose 100 µmol/kg
[16] = Prodrug release in C57BL/6J mouse kidney assessed as increase in fluorescence intensity at 100 umol/kg, iv measured after 6 hrs by fluorescence based analysis; assay type: ADME, organism-based; conditions: in vivo, dose 100 µmol/kg
[17] = Prodrug release in C57BL/6J mouse brain assessed as increase in fluorescence intensity at 100 umol/kg, iv measured after 6 hrs by fluorescence based analysis; assay type: ADME, organism-based; conditions: in vivo, dose 100 µmol/kg
[18] = Prodrug release in C57BL/6J mouse liver assessed as increase in fluorescence intensity at 100 umol/kg, iv measured after 6 hrs by fluorescence based analysis; assay type: ADME, organism-based; conditions: in vivo, dose 100 µmol/kg
Mus musculus [19] = assay: Protection against cerebral infarction in C57BL/6JNifdc mouse tMCAO model assessed as decrease in MDA level in serum at 100 umol/kg, iv measured per mg protein after 24 hrs; assay type: functional; conditions: dose 100 µmol/kg
Mus musculus [20] = assay: Protection against cerebral infarction in C57BL/6JNifdc mouse tMCAO model assessed as decrease in LDH level in brain at 100 umol/kg, iv measured after 24 hrs; assay type: functional, organism-based; conditions: dose 100.0 µmol/kg
Mus musculus [21] = assay: Anticoagulant activity in C57BL/6J mouse assessed as prothrombin time at 40 mg/kg, ip; assay type: functional, organism-based
Mus musculus [22] = assay: Anticoagulant activity in C57BL/6J mouse assessed as activated partial thromboplastin time at 40 mg/kg, ip; assay type: functional, organism-based
[23] = Acute liver toxicity in C57BL/6J mouse assessed as ALT level in serum at 869 mg/kg, ip measured after 24 hrs; assay type: organism-based; conditions: in vivo
[24] = Acute liver toxicity in C57BL/6J mouse assessed as AST level in serum at 869 mg/kg, ip measured after 24 hrs; assay type: organism-based; conditions: in vivo
[25] = Acute liver toxicity in C57BL/6J mouse assessed as ALP level in serum at 869 mg/kg, ip measured after 24 hrs; assay type: organism-based; conditions: in vivo
[26] = Acute liver toxicity in C57BL/6J mouse assessed as gamma-GT level in liver at 869 mg/kg, ip measured after 24 hrs; assay type: organism-based; conditions: in vivo
Mus musculus [27] = assay: Acute renal toxicity in C57BL/6J mouse assessed as albumin level in serum at 869 mg/kg, ip measured after 24 hrs; assay type: organism-based; conditions: in vivo
Mus musculus [28] = assay: Acute renal toxicity in C57BL/6J mouse assessed as GSH level in kidney at 869 mg/kg, ip measured after 24 hrs; assay type: organism-based; conditions: in vivo
[29] = Acute toxicity in C57BL/6J mouse assessed as total protein level at 869 mg/kg, ip measured after 24 hrs; assay type: organism-based; conditions: in vivo
[30] = Acute toxicity in C57BL/6J mouse assessed as total bilirubin level in serum at 869 mg/kg, ip measured after 24 hrs; assay type: organism-based; conditions: in vivo
[31] = Acute toxicity in C57BL/6J mouse assessed as creatinine level in serum at 869 mg/kg, ip measured after 24 hrs; assay type: organism-based; conditions: in vivo
[32] = Acute toxicity in C57BL/6J mouse assessed as uric acid level in serum at 869 mg/kg, ip measured after 24 hrs; assay type: organism-based; conditions: in vivo
[33] = Acute toxicity in C57BL/6J mouse assessed as SOD level at 869 mg/kg, ip measured after 24 hrs; assay type: organism-based; conditions: in vivo
[34] = Acute toxicity in C57BL/6J mouse assessed as morphological changes in liver at 869 mg/kg, ip measured after 24 hrs by Hematoxylin-Eosin staining based analysis; assay type: organism-based; conditions: in vivo
[35] = Acute toxicity in C57BL/6J mouse assessed as morphological changes in kidney at 869 mg/kg, ip measured after 24 hrs by Hematoxylin-Eosin staining based analysis; assay type: organism-based; conditions: in vivo
[36] = Acute toxicity in C57BL/6J mouse assessed as visible bleeding in cerebral area at 869 mg/kg, ip measured after 24 hrs; assay type: organism-based; conditions: in vivo

Compound: Cc1cc(=O)oc2cc(O)ccc12 [HYMECROMONE]
- Drug uptake [1]: Active
- Drug uptake [2]: Active
- Drug uptake [3]: Active
- Activity (Mus musculus [4]): Active; Slight Decrease Compared To Thio-Coumarins (Sulfide Prodrugs)
- Time (Mus musculus [5]): 13.99 min

Compound: S=c1ccc2ccc3occc3c2o1
- t1/2 (Liver carboxylesterase [6]): 66.71 h
- Drug metabolism [7]: metabolite_notdetected

Compound: COc1ccc2cc3c(C)cc(=S)oc3cc2c1
- t1/2 (Liver carboxylesterase [6]): > 120 h
- t1/2 [8]: 9.06 h

Compound: Cc1cc(=S)oc2cc3cc(O)ccc3cc12
- t1/2 (Liver carboxylesterase [6]): > 120 h
- t1/2 [8]: 52.4 h

Compound: Nc1ccc2c(C(F)(F)F)cc(=S)oc2c1
- t1/2 (Liver carboxylesterase [6]): > 120 h
- t1/2 [8]: 9.43 h

Compound: Cc1cc(=S)oc2cc(O)ccc12
- t1/2 (Liver carboxylesterase [9]): 50.4 h
- t1/2 (Liver carboxylesterase [6]): 57.59 h
- Drug metabolism (Liver carboxylesterase [10]): metabolite_notdetected
- Drug metabolism (Liver carboxylesterase [11]): 31.46 µM
- t1/2 [8]: 2.52 h
- Drug metabolism [12]: metabolite_notdetected
- Drug metabolism [13]: metabolite_detected
- Drug metabolism [14]: metabolite_detected
- Drug metabolism [15]: metabolite_detected
- Drug metabolism [16]: metabolite_detected
- Drug metabolism [17]: metabolite_detected
- Drug metabolism [18]: metabolite_detected
- Activity (Mus musculus [4]): Active
- Activity (Mus musculus [19]): 7.59 nmol
- Activity (Mus musculus [20]): Active
- Time (Mus musculus [5]): 10.84 min
- Activity (Mus musculus [21]): Active; Retained The Anticoagulant Activity Of Coumarins Observed
- Activity (Mus musculus [22]): Active; Retained The Anticoagulant Activity Of Coumarins Observed

Compound: Cc1cc(=S)oc2cc(N(C)C)ccc12
- t1/2 (Liver carboxylesterase [6]): > 120 h
- t1/2 [8]: 36.22 h

Compound: CCN(CC)c1ccc2c(C)cc(=S)oc2c1
- t1/2 (Liver carboxylesterase [6]): > 120 h
- Activity (Mus musculus [4]): Active
- Activity (Mus musculus [19]): 7.4 nmol
- Activity (Mus musculus [20]): Active
- Time (Mus musculus [5]): 16.6 min
- Activity (Mus musculus [21]): Active; Retained The Anticoagulant Activity Of Coumarins Observed
- Activity (Mus musculus [22]): Active; Retained The Anticoagulant Activity Of Coumarins Observed

Compound: S=c1ccc2ccccc2o1
- t1/2 (Liver carboxylesterase [6]): 94.44 h
- Drug metabolism [7]: metabolite_notdetected

Compound: CCN(CC)c1ccc2c(CN(C)O)cc(=S)oc2c1
- t1/2 (Liver carboxylesterase [6]): > 120 h
- t1/2 [8]: 5.78 h

Compound: S=c1ccc2cc3ccoc3cc2o1
- t1/2 (Liver carboxylesterase [6]): 62.89 h
- t1/2 [8]: 3.95 h
- Activity (Mus musculus [4]): Active
- Activity (Mus musculus [19]): 14.14 nmol
- Activity (Mus musculus [20]): Active
- Activity [23]: Non-toxic
- Activity [24]: Non-toxic
- Activity [25]: Non-toxic
- Activity [26]: Non-toxic
- Activity (Mus musculus [27]): Non-toxic
- Activity (Mus musculus [28]): Non-toxic
- Activity [29]: Non-toxic
- Activity [30]: Non-toxic
- Activity [31]: Non-toxic
- Activity [32]: Non-toxic
- Activity [33]: Non-toxic
- Activity [34]: Non-toxic
- Activity [35]: Non-toxic
- Activity [36]: Non-toxic
- Time (Mus musculus [5]): 16.52 min
- Activity (Mus musculus [21]): Active; Retained The Anticoagulant Activity Of Coumarins Observed
- Activity (Mus musculus [22]): Active; Retained The Anticoagulant Activity Of Coumarins Observed

Compound: CCN(CC)c1ccc2c(C)cc(=O)oc2c1
- Activity (Mus musculus [4]): Active; Slight Decrease Compared To Thio-Coumarins (Sulfide Prodrugs)
- Time (Mus musculus [5]): 9.58 min

Compound: O=c1ccc2cc3ccoc3cc2o1 [PSORALEN]
- Activity (Mus musculus [4]): Active; Slight Decrease Compared To Thio-Coumarins (Sulfide Prodrugs)
- Time (Mus musculus [5]): 22.24 min

Reference: ChEMBL document CHEMBL6134812, “A thiocoumarin based self-reporting sulfide prodrug strategy with a favorable safety profile” (Eur J Med Chem, 2025)
